In patent US20250059141A1, “TLR MODULATOR AND USE THEREOF” (DUALITY BIOLOGICS (SUZHOU) CO., LTD., priority 2021, published 2025):
Like-named read-outs stand apart in the source and are kept apart here.

Tests used:
[1] = molecular target: T1, hTLR8 (human Toll-like receptor 8) (Homo sapiens, UniProt Q9NR97); experiment: HEK-Blue hTLR8 reporter assay (QUANTI-Blue, OD650); format: cell-based; settings: HEK-Blue hTLR8 cells, 24 h, read-out: Reporter assay TLR8 EC50
T1 construct: host or cells: HEK-Blue hTLR8 (HEK293-derived reporter cells)
T1 sequence (Q9NR97 27-1041): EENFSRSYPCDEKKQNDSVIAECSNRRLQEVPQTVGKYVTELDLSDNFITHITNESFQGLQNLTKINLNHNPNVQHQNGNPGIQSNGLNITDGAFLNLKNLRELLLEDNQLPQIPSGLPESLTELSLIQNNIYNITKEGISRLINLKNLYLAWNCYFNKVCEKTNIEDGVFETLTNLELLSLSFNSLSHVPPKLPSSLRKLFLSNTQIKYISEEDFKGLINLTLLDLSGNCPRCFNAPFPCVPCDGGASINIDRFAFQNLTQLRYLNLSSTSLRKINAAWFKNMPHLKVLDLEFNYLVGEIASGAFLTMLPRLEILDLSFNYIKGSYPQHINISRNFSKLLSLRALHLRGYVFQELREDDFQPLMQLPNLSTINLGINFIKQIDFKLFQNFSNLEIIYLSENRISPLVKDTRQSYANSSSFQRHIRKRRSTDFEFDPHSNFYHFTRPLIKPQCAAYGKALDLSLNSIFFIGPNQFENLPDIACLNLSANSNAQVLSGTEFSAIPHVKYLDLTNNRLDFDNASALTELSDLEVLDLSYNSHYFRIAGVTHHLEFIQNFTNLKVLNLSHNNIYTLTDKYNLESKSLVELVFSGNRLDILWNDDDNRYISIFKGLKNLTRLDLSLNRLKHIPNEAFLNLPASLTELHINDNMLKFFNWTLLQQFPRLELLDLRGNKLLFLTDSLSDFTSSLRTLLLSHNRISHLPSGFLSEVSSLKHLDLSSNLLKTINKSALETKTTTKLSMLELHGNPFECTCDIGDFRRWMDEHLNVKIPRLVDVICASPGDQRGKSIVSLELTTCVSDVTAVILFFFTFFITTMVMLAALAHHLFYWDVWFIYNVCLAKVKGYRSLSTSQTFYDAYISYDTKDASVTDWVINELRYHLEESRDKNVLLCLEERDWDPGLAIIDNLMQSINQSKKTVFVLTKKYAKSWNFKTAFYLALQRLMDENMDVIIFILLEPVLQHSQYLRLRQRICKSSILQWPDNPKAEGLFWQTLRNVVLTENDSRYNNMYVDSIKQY
Protocol: (§1) In this example, the agonistic activity of the compounds of the present application on hTLR7 (human Toll-like receptor 7) and hTLR8 (human Toll-like receptor 8) was assessed; the induction activity of the compounds on human PBMCs for TNF-α and IFN-α production was assessed in human PBMCs (human peripheral blood mononuclear cells).
(§2) All compounds were formulated in DMSO into 30 mM stock solutions and preserved at 4° C. The reference compound ([…], Cat. No. tlrl-r848-5) was purchased from InvivoGen and formulated into a 5 mg/mL stock solution in DMSO and preserved in a freezer at −20° C. HEK-Blue hTLR7 and HEK-Blue hTLR8 cell lines were purchased from InvivoGen, and human PBMCs were purchased from Shanghai Saily Biotechnology Co., Ltd. (Cat. No. XFB—HP100B).
(§3) The major instruments used in this study were multifunctional microplate reader Flexstation III (Molecular Device), Envision (Perkin Elmer), M2e (Molecular Device), and Echo555 (Labcyte). 2.1 Agonistic activity of compounds on hTLR7 (human Toll-like receptor 7) and hTLR8 (human Toll-like receptor 8)
(§4) Compound dilution: The compounds of the present application are diluted in DMSO, for example, to about 15 mM. The reference compound was added to the plates in sequence after dilution. The compounds were serially 3-fold diluted to 10 concentrations and added to 96-well plates in duplicate.
(§5) For the negative control wells, DMSO was added at 0.2 μL/well, and the reference compound was added to the positive control wells. The final concentration of DMSO was 0.2%.
(§6) Cell plating: When an 80% confluence of HEK Blue hTLR7&8 cells in the culture flask was observed under a microscope, the culture medium was discarded, 10 mL of detection medium was added, and the cells were separated by pipetting. The cells were counted on a cytometer and diluted to 500,000 cells/mL. The cells were plated at 100 μL/50,000 cells/well in the 96-well plates containing the compounds. The compounds and cells were co-incubated at 37° C. in a 5% CO2 incubator for 24 hours.
(§7) Compound activity detection: 20 μL of cell supernatant was taken from each well and added to a plate containing QUANTI-Blue™ reagent at 180 μL/well. The plate was incubated at 37° C. for 1 hour, and the absorbance at 650 nm (OD650) was measured on the multifunctional microplate reader Flexstation III.
(§8) Compound activity data analysis: The OD650 values were analyzed by GraphPad Prism software and fitted to give dose-response curves of the compounds. The EC50 values of compounds were calculated.

[2] = molecular target: T2, hTLR7 (human Toll-like receptor 7) (Homo sapiens, UniProt Q9NYK1); experiment: HEK-Blue hTLR7 reporter assay (QUANTI-Blue, OD650); format: cell-based; settings: HEK-Blue hTLR7 cells, 24 h, read-out: Reporter assay TLR7 EC50
T2 construct: host or cells: HEK-Blue hTLR7 (HEK293-derived reporter cells)
T2 sequence (Q9NYK1 27-1049): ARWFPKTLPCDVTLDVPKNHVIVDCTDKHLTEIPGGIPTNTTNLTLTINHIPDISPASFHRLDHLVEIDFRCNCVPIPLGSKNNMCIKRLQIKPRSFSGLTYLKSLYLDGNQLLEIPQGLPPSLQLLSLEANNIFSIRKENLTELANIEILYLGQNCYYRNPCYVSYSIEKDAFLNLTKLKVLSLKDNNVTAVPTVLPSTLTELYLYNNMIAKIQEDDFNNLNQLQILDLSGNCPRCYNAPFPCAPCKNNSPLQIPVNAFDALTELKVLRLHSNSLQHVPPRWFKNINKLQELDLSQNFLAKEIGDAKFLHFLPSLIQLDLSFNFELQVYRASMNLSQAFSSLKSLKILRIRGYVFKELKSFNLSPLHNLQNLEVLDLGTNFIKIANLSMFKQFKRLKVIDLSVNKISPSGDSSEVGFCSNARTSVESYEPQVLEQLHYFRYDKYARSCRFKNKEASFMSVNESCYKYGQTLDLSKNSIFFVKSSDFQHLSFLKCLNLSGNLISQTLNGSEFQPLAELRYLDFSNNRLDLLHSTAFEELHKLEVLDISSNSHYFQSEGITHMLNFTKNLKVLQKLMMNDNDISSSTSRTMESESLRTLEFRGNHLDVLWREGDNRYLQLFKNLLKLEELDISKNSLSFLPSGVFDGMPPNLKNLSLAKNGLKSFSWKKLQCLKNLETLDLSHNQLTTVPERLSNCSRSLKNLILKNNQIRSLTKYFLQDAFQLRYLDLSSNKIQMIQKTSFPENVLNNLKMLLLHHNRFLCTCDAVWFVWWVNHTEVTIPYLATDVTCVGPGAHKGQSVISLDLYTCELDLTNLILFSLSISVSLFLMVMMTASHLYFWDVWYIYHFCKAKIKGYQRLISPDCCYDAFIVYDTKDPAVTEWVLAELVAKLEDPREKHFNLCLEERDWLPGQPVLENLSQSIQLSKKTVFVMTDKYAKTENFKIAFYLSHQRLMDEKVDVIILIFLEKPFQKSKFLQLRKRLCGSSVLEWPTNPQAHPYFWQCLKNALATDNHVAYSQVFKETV
Protocol: as §1, §2, §3, §4, §5, §6, §7, §8

EC50 [1] [nM] | EC50 [2] [nM] | EC50 ([1]; class symbols) [nM] | EC50 ([2]; class symbols) [nM] | Compound
2.8 | 3550 | – | – | CCCN(OCc1ccc(N)cc1)C(=O)C1=Cc2ccc(C(=O)N3CCOCC3)cc2N=C(N)C1 [Compound 39]
– | – | 10 to 100 | > 1000 | CCCN(OCc1ccc(N)cc1)C(=O)C1=Cc2ccc(C(=O)N3CC[C@@H](O)C3)cc2N=C(N)C1 [Compound 46A]
– | – | 10 to 100 | > 1000 | CCCN(OCc1ccc(N)cc1)C(=O)C1=Cc2ccc(C(=O)N3CC[C@H](O)C3)cc2N=C(N)C1 [Compound 46B]
